Assay results taken from US20220202905A1, “COMPOSITION FOR PREVENTING OR TREATING NEUROTROPHIC KERATITIS WHICH CONTAINS PACAP PEPTIDE OR STABILIZED PACAP PEPTIDE” (SENJU PHARMACEUTICAL CO., LTD., priority 2019, published 2022).
Numbered stars: 1 amine (or outer) side, 2 acyl side, 3 side chain; on linkers, the order of the positions; unused ones are H or OH. Square brackets hold non-standard residues; d marks the D form. Peptide text beside a SMILES is read from it. Ala(1H-tetrazol-5-yl) = N[C@@H](Cc1nnn[nH]1)C(=O)O; X1 = O=C([C@H](CCc1nnn[nH]1)N[*:1])[*:2]; Nle = CCCC[C@H](N)C(=O)O

T1: VPAC1R (Homo sapiens, UniProt P32241)
T1 construct: host or cells: CHO-K1
T1 sequence (P32241 31-457): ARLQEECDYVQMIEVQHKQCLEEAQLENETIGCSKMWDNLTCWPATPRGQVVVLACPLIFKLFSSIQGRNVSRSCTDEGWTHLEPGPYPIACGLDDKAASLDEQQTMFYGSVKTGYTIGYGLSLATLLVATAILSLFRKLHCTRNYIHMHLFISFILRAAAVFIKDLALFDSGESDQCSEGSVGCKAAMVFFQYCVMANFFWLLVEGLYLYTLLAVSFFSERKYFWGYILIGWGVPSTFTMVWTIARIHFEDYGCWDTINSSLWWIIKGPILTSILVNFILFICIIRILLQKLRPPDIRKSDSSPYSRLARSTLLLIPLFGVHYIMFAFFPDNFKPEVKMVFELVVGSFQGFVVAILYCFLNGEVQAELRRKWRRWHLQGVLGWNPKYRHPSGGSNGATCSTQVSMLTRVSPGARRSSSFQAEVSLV

T2: PAC1R (Homo sapiens, UniProt P41586)
T2 construct: host or cells: CHO-K1
T2 sequence (P41586 21-468): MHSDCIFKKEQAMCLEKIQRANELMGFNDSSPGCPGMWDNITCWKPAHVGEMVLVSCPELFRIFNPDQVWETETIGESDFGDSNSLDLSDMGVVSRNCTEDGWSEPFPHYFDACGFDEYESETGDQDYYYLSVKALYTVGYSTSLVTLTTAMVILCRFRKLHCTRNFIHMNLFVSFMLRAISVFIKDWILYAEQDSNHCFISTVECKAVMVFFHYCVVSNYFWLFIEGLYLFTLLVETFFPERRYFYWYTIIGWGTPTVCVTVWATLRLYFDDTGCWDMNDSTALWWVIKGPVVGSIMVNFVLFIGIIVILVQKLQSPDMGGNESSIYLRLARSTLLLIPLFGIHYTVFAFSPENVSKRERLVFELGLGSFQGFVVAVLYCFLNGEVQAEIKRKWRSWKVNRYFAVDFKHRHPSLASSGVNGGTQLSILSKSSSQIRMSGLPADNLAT

T3: PAC1 receptor (UniProt P41586 21-468, limits assumed)
T3 sequence (looked up): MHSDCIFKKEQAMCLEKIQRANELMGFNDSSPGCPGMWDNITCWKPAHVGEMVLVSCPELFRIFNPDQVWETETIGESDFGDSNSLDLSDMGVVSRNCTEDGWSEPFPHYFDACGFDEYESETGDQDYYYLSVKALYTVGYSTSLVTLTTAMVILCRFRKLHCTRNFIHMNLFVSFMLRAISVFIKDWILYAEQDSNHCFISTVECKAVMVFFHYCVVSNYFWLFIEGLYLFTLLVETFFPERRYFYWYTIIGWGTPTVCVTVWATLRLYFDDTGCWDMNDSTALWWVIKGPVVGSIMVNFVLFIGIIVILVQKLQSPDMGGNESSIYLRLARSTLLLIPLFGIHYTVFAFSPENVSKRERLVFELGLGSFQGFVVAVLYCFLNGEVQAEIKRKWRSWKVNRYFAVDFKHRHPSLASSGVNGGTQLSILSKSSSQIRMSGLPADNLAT

T4: VPAC1 receptor (UniProt P32241 31-457, limits assumed)
T4 sequence (looked up): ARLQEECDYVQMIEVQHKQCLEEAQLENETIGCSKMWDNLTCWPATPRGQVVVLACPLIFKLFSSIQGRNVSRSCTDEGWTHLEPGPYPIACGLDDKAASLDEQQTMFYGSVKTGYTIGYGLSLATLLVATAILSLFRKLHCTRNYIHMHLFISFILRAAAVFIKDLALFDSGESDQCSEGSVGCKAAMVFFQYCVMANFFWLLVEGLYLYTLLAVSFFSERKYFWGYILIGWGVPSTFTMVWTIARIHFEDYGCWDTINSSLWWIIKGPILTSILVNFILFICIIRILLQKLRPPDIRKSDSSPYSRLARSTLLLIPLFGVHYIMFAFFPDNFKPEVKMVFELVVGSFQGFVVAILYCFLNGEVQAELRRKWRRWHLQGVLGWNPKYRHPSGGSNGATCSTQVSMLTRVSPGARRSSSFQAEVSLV


Columns and labels:
[1] = Peptide stability test, Tris buffer (pH 7.0), 60° C. storage, HPLC remaining rate; assay type: physicochemical; conditions: Table 7; 100 μM in Tris buffer pH 7.0
Method in brief: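 Peptides at 100 μM in Tris buffer (pH 7.0) stored 1 or 2 weeks at 60° C.; unstored sample kept at −30° C. as initial reference. Remaining peptide quantified by reversed-phase HPLC at 220 nm (formic acid/acetonitrile gradient, 40° C. column), as water-corrected remaining rate.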

VPAC1R = biological target: T1, VPAC1R; assay: cAMP assay in VPAC1R high-expressing CHO-K1 cell line; assay type: cell-based; conditions: Table 12; cAMP inducing effect, CHO-K1 VPAC1R high-expressing cells
Description: (§1) The cells were cultured for 18 to 24 hours at 37° C. in a 5% C02 incubator, adhering the cells to the plate. […] A 5-fold dilution series was then prepared with the same Cell assay buffer and used in an assay. The cAMP assay was carried out using a Hit Hunter cAMP Assay for Biologics kit (product of DiscoveRx, Cat. No. 90-0075LM25), according to the included kit instructions. […] Next, the culture medium was removed from the CHO-K1 cell culture plate, washing was performed with PBS, and the peptide-cAMP antibody liquid mixtures were added to the cells and incubated for 30 minutes under a 5% CO2 atmosphere at 37° C. A working detection solution was then added and the culture plate was shielded from light with aluminum foil and incubated at 25° C. for 1 hour. After incubation, Solution A was added and the culture plate was shielded from light with aluminum foil and then incubated at 25° C. for 3 hours. […] The obtained value for the Relative Luminescence Unit (RLU) was analyzed with GraphPad Prism Ver 6.05 (product of Graph Pad) and the EC50 value was calculated for each peptide. […] FIG. 2 and Table 11. […] A 5-fold dilution series was then prepared with the same Cell assay buffer and used in an assay. […] A 5-fold dilution series was then prepared with the same Cell assay buffer and used in an assay.

PAC1R = biological target: T2, PAC1R; assay: cAMP assay in PAC1R high-expressing CHO-K1 cell line; assay type: cell-based; conditions: cAMP inducing effect, CHO-K1 PAC1R high-expressing cells
Description: as §1

PAC1 receptor = biological target: T3, PAC1 receptor; assay: cell-based or functional assay
VPAC1 receptor = biological target: T4, VPAC1 receptor; assay: cell-based or functional assay

| Molecule | remaining rate after correction for water, 60° C., 1 week preservation [1] [%] | remaining rate after correction for water, 60° C., 2 weeks preservation [1] [%] | EC50 (VPAC1R) [nM] | further results |
| --- | --- | --- | --- | --- |
| CC[C@H](C)[C@H](NC(=O)CNC(=O)[C@H](Cc1nnn[nH]1)NC(=O)[C@H](CO)NC(=O)[C@H](Cc1c[nH]cn1)NC(C)=O)C(=O)N[C@@H](Cc1ccccc1)C(=O)N[C@H](C(=O)N[C@@H](Cc1nnn[nH]1)C(=O)N[C@@H](CO)C(=O)N[C@@H](Cc1ccc(O)cc1)C(=O)N[C@@H](CO)C(=O)N[C@@H](CCCNC(=N)N)C(=O)N[C@@H](Cc1ccc(O)cc1)C(=O)N[C@@H](CCCNC(=N)N)C(=O)N[C@@H](CCCCN)C(=O)N[C@@H](CCc1nnn[nH]1)C(=O)N[C@@H](CC(C)C)C(=O)N[C@@H](C)C(=O)N[C@H](C(=O)N[C@@H](CCCCN)C(=O)N[C@@H](CCCCN)C(=O)N[C@@H](Cc1ccc(O)cc1)C(=O)N[C@@H](CC(C)C)C(=O)N[C@@H](C)C(=O)N[C@@H](C)C(=O)N[C@H](C(=O)N[C@@H](CC(C)C)C(N)=O)C(C)C)C(C)C)[C@@H](C)O [Peptide 13] (Ac-HS[Ala(1H-tetrazol-5-yl)]GIFT[Ala(1H-tetrazol-5-yl)]SYSRYRK[X1]LAVKKYLAAVL-NH2) | 97.4 | 95.4 | 0.072 | – |
| CC[C@H](C)[C@H](NC(=O)CNC(=O)[C@H](Cc1nnn[nH]1)NC(=O)[C@H](CO)NC(=O)[C@H](Cc1c[nH]cn1)NC(C)=O)C(=O)N[C@@H](Cc1ccccc1)C(=O)N[C@H](C(=O)N[C@@H](Cc1nnn[nH]1)C(=O)N[C@@H](C)C(=O)N[C@@H](Cc1ccc(O)cc1)C(=O)N[C@@H](CO)C(=O)N[C@@H](CCCNC(=N)N)C(=O)N[C@@H](Cc1ccc(O)cc1)C(=O)N[C@@H](CCCNC(=N)N)C(=O)N[C@@H](CCCCN)C(=O)N[C@@H](CCC(N)=O)C(=O)N[C@@H](CC(C)C)C(=O)N[C@@H](C)C(=O)N[C@H](C(=O)N[C@@H](CCCCN)C(=O)N[C@@H](CCCCN)C(=O)N[C@@H](Cc1ccc(O)cc1)C(=O)N[C@@H](CC(C)C)C(=O)N[C@@H](C)C(=O)N[C@@H](C)C(=O)N[C@H](C(=O)N[C@@H](CC(C)C)C(N)=O)C(C)C)C(C)C)[C@@H](C)O [Peptide 15] (Ac-HS[Ala(1H-tetrazol-5-yl)]GIFT[Ala(1H-tetrazol-5-yl)]AYSRYRKQLAVKKYLAAVL-NH2) | 97.3 | 94.9 | – | EC50 (PAC1R; Table 12): 0.061 nM |
| CC[C@H](C)[C@H](NC(=O)CNC(=O)[C@H](Cc1nnn[nH]1)NC(=O)[C@H](CO)NC(=O)[C@H](Cc1c[nH]cn1)NC(C)=O)C(=O)N[C@@H](Cc1ccccc1)C(=O)N[C@H](C(=O)N[C@@H](Cc1nnn[nH]1)C(=O)N[C@@H](CO)C(=O)N[C@@H](Cc1ccc(O)cc1)C(=O)N[C@@H](CO)C(=O)N[C@@H](CCCNC(=N)N)C(=O)N[C@@H](Cc1ccc(O)cc1)C(=O)N[C@@H](CCCNC(=N)N)C(=O)N[C@@H](CCCCN)C(=O)N[C@@H](CCC(N)=O)C(=O)N[C@@H](CC(C)C)C(=O)N[C@@H](C)C(=O)N[C@@H](C)C(=O)N[C@@H](CCCCN)C(=O)N[C@@H](CCCCN)C(=O)N[C@@H](Cc1ccc(O)cc1)C(=O)N[C@@H](CC(C)C)C(=O)N[C@@H](C)C(=O)N[C@@H](C)C(=O)N[C@H](C(=O)N[C@@H](CC(C)C)C(N)=O)C(C)C)[C@@H](C)O [Peptide 19] (Ac-HS[Ala(1H-tetrazol-5-yl)]GIFT[Ala(1H-tetrazol-5-yl)]SYSRYRKQLAAKKYLAAVL-NH2) | 95.8 | 92.7 | 0.044 | – |
| CCCC[C@H](NC(=O)[C@H](CCC(N)=O)NC(=O)[C@H](CCCCN)NC(=O)[C@H](CCCNC(=N)N)NC(=O)[C@H](Cc1ccc(O)cc1)NC(=O)[C@H](CCCNC(=N)N)NC(=O)[C@H](CO)NC(=O)[C@H](Cc1ccc(O)cc1)NC(=O)[C@H](CO)NC(=O)[C@H](Cc1nnn[nH]1)NC(=O)[C@@H](NC(=O)[C@H](Cc1ccccc1)NC(=O)[C@@H](NC(=O)CNC(=O)[C@H](Cc1nnn[nH]1)NC(=O)[C@H](CO)NC(=O)[C@@H](N)Cc1c[nH]cn1)[C@@H](C)CC)[C@@H](C)O)C(=O)N[C@@H](C)C(=O)N[C@H](C(=O)N[C@@H](CCCCN)C(=O)N[C@@H](CCCCN)C(=O)N[C@@H](Cc1ccc(O)cc1)C(=O)N[C@@H](CC(C)C)C(=O)N[C@@H](C)C(=O)N[C@@H](C)C(=O)N[C@H](C(=O)N[C@@H](CC(C)C)C(N)=O)C(C)C)C(C)C [Peptide 6] (H-HS[Ala(1H-tetrazol-5-yl)]GIFT[Ala(1H-tetrazol-5-yl)]SYSRYRKQ[Nle]AVKKYLAAVL-NH2) | – | – | – | EC50 (PAC1R; Table 11): 0.079 nM |
| Ac-HS[Ala(1H-tetrazol-5-yl)]AIFT[Ala(1H-tetrazol-5-yl)]SYSRYRKAAAVKKYLAAVL-NH2 (SMILES CC[C@H](C)[C@H](NC(=O)[C@H](C)NC(=O)[C@H](Cc1nnn[nH]1)NC(=O)[C@H](CO)NC(=O)[C@H](Cc1c[nH]cn1)NC(C)=O)C(=O)N[C@@H](Cc1ccccc1)C(=O)N[C@H](C(=O)N[C@@H](Cc1nnn[nH]1)C(=O)N[C@@H](CO)C(=O)N[C@@H](Cc1ccc(O)cc1)C(=O)N[C@@H](CO)C(=O)N[C@@H](CCCNC(=N)N)C(=O)N[C@@H](Cc1ccc(O)cc1)C(=O)N[C@@H](CCCNC(=N)N)C(=O)N[C@@H](CCCCN)C(=O)N[C@@H](C)C(=O)N[C@@H](C)C(=O)N[C@@H](C)C(=O)N[C@H](C(=O)N[C@@H](CCCCN)C(=O)N[C@@H](CCCCN)C(=O)N[C@@H](Cc1ccc(O)cc1)C(=O)N[C@@H](CC(C)C)C(=O)N[C@@H](C)C(=O)N[C@@H](C)C(=O)N[C@H](C(=O)N[C@@H](CC(C)C)C(N)=O)C(C)C)C(C)C)[C@@H](C)O) [Peptide 34] | – | – | – | EC50 (PAC1R), cAMP inducing effect (PAC1 receptor): 0.21 nM; EC50 (VPAC1R), cAMP inducing effect (VPAC1 receptor): 0.089 nM |
